Measured values from patent US20140286906A1, “USE OF IGF-1 IN THE MODULATION OF TREG CELL ACTIVITY AND THE TREATMENT AND PREVENTION OF AUTOIMMUNE DISORDERS OR DISEASES” (priority 2011, published 2014).

Assays:
[1] = mouse, in vivo
CD4+CD25+ splenic cells = assay: qRT-PCR and microarray gene expression in CD4 CD25 double positive splenic cells; type: cell-based, murine
Experimental: To further support the effect of IGF-1 on T regulatory function qRT-PCR analysis was performed on CD4 CD25 double positive splenic purified cells in the presence or absence of IGF-1 (FIG. 3). […] IL-10 is a cytokine with a potent anti-inflammatory activity that is produced, among others, by regulatory T cells (Mosser and Zhang, 2008) and its expression is not dependent on Foxp3 expression (Gavin et al., 2007). Foxp3 IL10 expressing cells mainly localize in the intestine and are important regulators of intestine homeostasis. For example, mice with conditional deletion of IL-10 develop spontaneous inflammation of the intestine (Roers et al., 2004). […] Additionally, IL-10 is also important for the maintenance of Foxp3 expression in vivo in mice with colitis (Murai et al., 2009). The inventors performed microarray analysis comparing IGF-1 treated and untreated Tregs. […] An example of these genes is granzyme B, which enables T regulatory cells to actively kill APCs and Teff cells in extreme conditions. These and other mechanisms are believed to lead in vivo to the resolution of the immune response (Tang and Bluestone, 2008). Thus, maintaining the suppressive function after cell expansion was a critical aspect regarding the use of IGF-1 for restoring the balance of effector and regulatory.

[2] = tested on: CD4+ cells isolated from mesenteric lymph nodes; assay: intraperitoneal injection, RT-PCR of CD4+ cells from mesenteric lymph nodes; type: in vivo, mice; settings: five intraperitoneal daily injections (5 μg); RT-PCR after the fifth day; n=30, P=0.0241
DSS-induced colitis = assay: DSS-induced colitis, systemic IGF-1 delivery; type: in vivo, mice
From the text: In this example the inventors examined the ability of IGF-1 to suppress inflammation in a mouse model for IBD (DSS-induced colitis, Wirtz et al, 2007). Mice ingested DSS for 7 days and developed an acute colitis. […] This difference in weight with respect to their respective control group was maintained during the duration of the IGF-1 treatment (FIG. 31).
Administration of DSS in several cycles results in chronic colitis (Wirtz et al., 2007). To also test if the protective effects of IGF-1 lasted beyond the IGF-1 treatment, mice were administered DSS for another cycle at day 37. […] To further confirm that the observed effects were a consequence of colonic inflammation the inventors performed a histochemical analysis of the colon (FIG. 33). DSS-treated mice presented enlargement of the muscle, mucosa and subepithelial layer and foci of infiltrating cell, the main mediators of inflammation. In contrast, DSS-colitis mice receiving IGF-1 during the initial phase of the treatment for a total of 28 days were protected and did no show this prolonged infiltration of leukocytes. Quantification of these histological parameters (FIG. 34) further confirmed the significant long-term protection in IGF-pretreated mice.

CD25+ splenic CD4+ cells = assay: in vitro expansion of FACS-sorted splenic CD4+CD25+ cells; type: cell-based, murine; settings: TCR stimulation with anti-CD3 and anti-CD28 antibodies
Experimental: In a preferred embodiment for expanding Treg cells in vitro/ex vivo, IGF-1 is added at a certain concentration (e.g. between 1 and 100 ng/ml) in a medium that allows for the cells to survive and grow (e.g. in mice, RPM1 1640 plus 10% fetal calf serum plus other additives including beta-mercaptoethanol, Sodium Pyruvate, Penicillin/Streptomycin, L-Glutamine or equivalent defined media). Additionally, T cells are stimulated with anti-CD3. The costimulatory agent is an antibody or ligand specific for a TCR costimulator, such as CD28 (like in example 1) or GITR, as described below.
In animal experiments, the population is isolated normally from murine spleen (but also could be isolated from other tissues, like for example but not restricted to bone marrow, adipose tissue, cord blood derived mononuclear cell, thymus, or peripheral blood) and is sorted using different markers (e.g., CD4 and CD25). This population is defined as CD4+CD25+ and includes the regulatory cells. This population is then treated in the above-mentioned medium in the presence of IGF-1. After several days of culture part of the cells are counted, fixed, permeabilized and analyzed by flow cytometry using an anti-FOXP3 antibody in combination with the same extracellular markers (CD4 and CD25). This allows for the determination of the absolute number of FOXP3 positive cells present in the culture. […]

[3] = mouse, in vivo; remark: listed apart in the source
Experimental: The inventors first tested the ability of rhIGF-1 to alter the balance of Treg/CD4 positive cells after five intraperitoneal daily injections (5 μg, FIG. 11).

CD4+CD25+ cells = assay: Annexin V / living dye apoptosis flow cytometry, CD4+CD25+ cells; type: cell-based, murine
From the text: The effects of IGF-1 on apoptosis can be measured by flow cytometry. By using a combination of a living dye and Annexin V staining it is possible to determine four different cell populations which correspond to non-apoptotic, necrotic, early and late apoptosis.
Initially, and in order to characterize the in vitro effects of IGF-1 on the different populations of the […] immune system, murine splenic CD4 positive cells were sorted by FACS based on the expression of CD25. This allows for the separation and enrichment of conventional T cells (CD25 negative) and regulatory T cells (CD25 positive). […] To exclude the possibility that the observed expansion was due to the anti-apoptotic properties of IGF-1, the cells in culture were stained with AnnexinV (a marker of apoptosis) and a vital dye, and then analyzed by flow cytometry.

[4] = qRT-PCR, compared to non-treated cultures

## Insulin-like growth factor-1 [IGF-1]
[1]
  tumors at necropsy: never found tumors
CD4+CD25+ splenic cells; microarray, IGF-1 treated versus untreated Tregs
  granzyme B gene expression: upregulated
CD4+CD25+ splenic cells; [4]
  Foxp3 mRNA: upregulated from day 1
  IL-10 mRNA: upregulated but with delayed kinetics
[2]
  expression of Foxp3 in CD4+ cells from mesenteric lymph nodes: increased expression
DSS-induced colitis; IGF-1 for 28 days in initial phase, after re-challenge
  histological signs of colitis, infiltration of leukocytes: protected
DSS-induced colitis; acute phase, DSS for 7 days
  body weight loss: showed protection
DSS-induced colitis; after re-challenge, versus DSS-only mice, P=0.0004
  thickness of the subepithelial layer of the colon: significant reduction
DSS-induced colitis; after re-challenge, versus DSS-only mice, P=0.0007
  thickness of the mucosa of the colon: significant reduction
DSS-induced colitis; after re-challenge, versus DSS-only mice, P=0.053
  thickness of the muscle layer of the colon: significant reduction
DSS-induced colitis; during the duration of the IGF-1 treatment
  difference in weight with respect to control group: maintained
DSS-induced colitis; second DSS cycle at day 37, no rhIGF-1 delivered in this period
  body weight loss after DSS re-challenge: complete protection
CD25+ splenic CD4+ cells
  in vitro expansion of CD25 positive subset: consistently promoted the in vitro expansion
[3]
  hIGF-1 in peripheral blood: Elevated levels
  increase of IGF-1 levels determined by ELISA: 40 and 4
CD4+CD25+ cells
  distribution of Annexin V and living dye stained populations: No difference
